Converted amounts (≈) assume the structure as drawn.
What was measured:
[1] = test system: Escherichia coli; assay: Antimicrobial activity against Escherichia coli TOP10 harboring pADC-33 plasmid carrying entire blaAmpC gene with alanine residue deletion at 215 position by Etest method in presence of clavulanic acid; type: functional
[2] = test system: Escherichia coli; assay: Antimicrobial activity against Escherichia coli TOP10 harboring pADC-11 plasmid by Etest method in presence of clavulanic acid; type: functional
[3] = test system: Acinetobacter baumannii; assay: Antimicrobial activity against Acinetobacter baumannii KI by Etest method in presence of clavulanic acid; type: functional
[4] = test system: Escherichia coli; assay: Antimicrobial activity against Escherichia coli TOP10 harboring pADC-11 plasmid carrying entire blaAmpC gene with alanine residue deletion at 215 position and R210P substitution by Etest method in presence of clavulanic acid; type: functional
[5] = test system: Escherichia coli; assay: Antimicrobial activity against Escherichia coli TOP10 harboring pADC-11 plasmid carrying entire blaAmpC gene with alanine residue insertion at 215 position and R210P substitution by Etest method; type: functional
[6] = test system: Escherichia coli; assay: Antimicrobial activity against Escherichia coli TOP10 harboring pADC-11 plasmid carrying entire blaAmpC gene with alanine residue insertion at 215 position by Etest method in presence of clavulanic acid; type: functional
[7] = test system: Acinetobacter baumannii; assay: Antimicrobial activity against Acinetobacter baumannii AYE expressing VEB-1 gene by Etest method in presence of clavulanic acid; type: functional
[8] = test system: Acinetobacter baumannii; assay: Antimicrobial activity against Acinetobacter baumannii AYE expressing VEB-1 gene by Etest method; type: functional
[9] = test system: Escherichia coli; assay: Antimicrobial activity against Escherichia coli TOP10 harboring pADC-11 plasmid carrying entire blaAmpC gene with alanine residue insertion at 215 position by Etest method; type: functional
[10] = test system: Acinetobacter baumannii; assay: Antimicrobial activity against Acinetobacter baumannii CIP70.10 by Etest method in presence of clavulanic acid; type: functional
[11] = test system: Escherichia coli; assay: Antimicrobial activity against Escherichia coli TOP10 harboring pADC-11 plasmid with entire blaAmpC gene by Etest method; type: functional
[12] = test system: Escherichia coli; assay: Antimicrobial activity against Escherichia coli TOP10 harboring pTOPO plasmid by Etest method; type: functional
[13] = test system: Escherichia coli; assay: Antimicrobial activity against Escherichia coli TOP10 harboring pADC-50 plasmid by Etest method in presence of clavulanic acid; type: functional
[14] = test system: Escherichia coli; assay: Antimicrobial activity against Escherichia coli TOP10 harboring pADC-33 plasmid carrying entire blaAmpC gene with alanine residue deletion at 215 position and R210P substitution by Etest method in presence of clavulanic acid; type: functional
[15] = test system: Escherichia coli; assay: Antimicrobial activity against Escherichia coli TOP10 harboring pADC-33 plasmid carrying entire blaAmpC gene with alanine residue deletion at 215 position and R210P substitution by Etest method; type: functional
[16] = test system: Escherichia coli; assay: Antimicrobial activity against Escherichia coli TOP10 harboring pADC-33 plasmid with entire blaAmpC gene by Etest method; type: functional
[17] = test system: Acinetobacter baumannii; assay: Antimicrobial activity against Acinetobacter baumannii KI by Etest method; type: functional
[18] = test system: Escherichia coli; assay: Antimicrobial activity against Escherichia coli TOP10 harboring pTOPO plasmid by Etest method in presence of clavulanic acid; type: functional
[19] = test system: Escherichia coli; assay: Antimicrobial activity against Escherichia coli TOP10 harboring pADC-33 plasmid carrying entire blaAmpC gene by Etest method in presence of clavulanic acid; type: functional
[20] = test system: Escherichia coli; assay: Antimicrobial activity against Escherichia coli TOP10 harboring pADC-33 plasmid by Etest method; type: functional
[21] = test system: Escherichia coli; assay: Antimicrobial activity against Escherichia coli TOP10 harboring pADC-50 plasmid by Etest method; type: functional
[22] = test system: Escherichia coli; assay: Antimicrobial activity against Escherichia coli TOP10 harboring pADC-33 plasmid with entire blaAmpC gene with alanine residue deletion at 215 position by Etest method; type: functional
[23] = test system: Escherichia coli; assay: Antimicrobial activity against Escherichia coli TOP10 harboring pADC-33 plasmid by Etest method in presence of clavulanic acid; type: functional
[24] = test system: Escherichia coli; assay: Antimicrobial activity against Escherichia coli TOP10 harboring pADC-11 plasmid carrying entire blaAmpC gene by Etest method in presence of clavulanic acid; type: functional
[25] = test system: Acinetobacter baumannii; assay: Antimicrobial activity against Acinetobacter baumannii CIP70.10 by Etest method; type: functional
[26] = test system: Escherichia coli; assay: Antimicrobial activity against Escherichia coli TOP10 harboring pADC-11 plasmid by Etest method; type: functional
[27] = test system: Escherichia coli; assay: Antimicrobial activity against Escherichia coli TOP10 harboring pADC-50 plasmid by Etest method in presence of Tazobactam; type: functional
[28] = test system: Escherichia coli; assay: Antimicrobial activity against Escherichia coli TOP10 harboring pADC-11 plasmid by Etest method in presence of Tazobactam; type: functional
[29] = test system: Acinetobacter baumannii; assay: Antimicrobial activity against Acinetobacter baumannii CIP70.10 by Etest method in presence of Tazobactam; type: functional
[30] = test system: Escherichia coli; assay: Antimicrobial activity against Escherichia coli TOP10 harboring pADC-33 plasmid carrying entire blaAmpC gene with alanine residue deletion at 215 position and R210P substitution by Etest method in presence of Tazobactam; type: functional
[31] = test system: Escherichia coli; assay: Antimicrobial activity against Escherichia coli TOP10 harboring pADC-33 plasmid by Etest method in presence of Tazobactam; type: functional
[32] = test system: Escherichia coli; assay: Antimicrobial activity against Escherichia coli TOP10 harboring pADC-11 plasmid carrying entire blaAmpC gene with alanine residue insertion at 215 position by Etest method in presence of Tazobactam; type: functional
[33] = test system: Escherichia coli; assay: Antimicrobial activity against Escherichia coli TOP10 harboring pADC-33 plasmid carrying entire blaAmpC gene by Etest method in presence of Tazobactam; type: functional
[34] = test system: Acinetobacter baumannii; assay: Ratio of Kcat to Km for Acinetobacter baumannii ADC-33 beta-lactamase to Kcat to Km for Acinetobacter baumannii ADC-11 beta-lactamase
[35] = test system: Escherichia coli; assay: Antimicrobial activity against Escherichia coli TOP10 harboring pADC-33 plasmid carrying entire blaAmpC gene with alanine residue deletion at 215 position by Etest method in presence of Tazobactam; type: functional
[36] = test system: Escherichia coli; assay: Antimicrobial activity against Escherichia coli TOP10 harboring pADC-11 plasmid carrying entire blaAmpC gene with alanine residue deletion at 215 position and R210P substitution by Etest method in presence of Tazobactam; type: functional
[37] = test system: Acinetobacter baumannii; assay: Antimicrobial activity against Acinetobacter baumannii KI by Etest method in presence of Tazobactam; type: functional
[38] = test system: Acinetobacter baumannii; assay: Antimicrobial activity against Acinetobacter baumannii AYE expressing VEB-1 gene by Etest method in presence of Tazobactam; type: functional
[39] = test system: Escherichia coli; assay: Antimicrobial activity against Escherichia coli TOP10 harboring pADC-11 plasmid carrying entire blaAmpC gene by Etest method in presence of Tazobactam; type: functional
[40] = test system: Escherichia coli; assay: Antimicrobial activity against Escherichia coli TOP10 harboring pTOPO plasmid by Etest method in presence of Tazobactam; type: functional

## CC1(C)S[C@@H]2[C@H](NC(=O)[C@H](N)c3ccc(O)cc3)C(=O)N2[C@H]1C(=O)O [AMOXICILLIN]
[1]
  MIC: > 256 µg/mL
[2]
  MIC: 256 µg/mL
[3]
  MIC: 64 µg/mL
[4]
  MIC: 256 µg/mL
[5]
  MIC: > 256 µg/mL
[6]
  MIC: > 256 µg/mL
[7]
  MIC: 128 µg/mL
[8]
  MIC: > 256 µg/mL
[9]
  MIC: > 256 µg/mL
[10]
  MIC: 16 µg/mL
[11]
  MIC: > 256 µg/mL
[12]
  MIC: 2 µg/mL (≈ 5.47 µM)
[13]
  MIC: 256 µg/mL
[14]
  MIC: 256 µg/mL
[15]
  MIC: > 256 µg/mL
[16]
  MIC: > 256 µg/mL
[17]
  MIC: > 256 µg/mL
[18]
  MIC: 2 µg/mL
[19]
  MIC: > 256 µg/mL
[20]
  MIC: > 256 µg/mL
[21]
  MIC: 256 µg/mL (≈ 701 µM)
[22]
  MIC: > 256 µg/mL
[23]
  MIC: > 256 µg/mL
[24]
  MIC: > 256 µg/mL
[25]
  MIC: 32 µg/mL (≈ 87.6 µM)
[26]
  MIC: > 256 µg/mL

## CCN1CCN(C(=O)N[C@@H](C(=O)N[C@@H]2C(=O)N3[C@@H]2SC(C)(C)[C@@H]3C(=O)O)c2ccccc2)C(=O)C1=O [PIPERACILLIN]
[27]
  MIC: 16 µg/mL
[28]
  MIC: 8 µg/mL
[29]
  MIC: 4 µg/mL
[30]
  MIC: 128 µg/mL
[31]
  MIC: 32 µg/mL
[32]
  MIC: 256 µg/mL
[5]
  MIC: > 256 µg/mL
[33]
  MIC: > 256 µg/mL
[8]
  MIC: > 256 µg/mL
[9]
  MIC: > 256 µg/mL
[11]
  MIC: > 256 µg/mL
[34]
  kcat/Km: 1.2e+06 M⁻¹ s⁻¹
[12]
  MIC: 1 µg/mL (≈ 1.93 µM)
[35]
  MIC: 256 µg/mL
[36]
  MIC: 256 µg/mL
[15]
  MIC: > 256 µg/mL
[16]
  MIC: > 256 µg/mL
[37]
  MIC: 128 µg/mL
[38]
  MIC: 128 µg/mL
[17]
  MIC: > 256 µg/mL
[20]
  MIC: 32 µg/mL (≈ 61.8 µM)
[21]
  MIC: 16 µg/mL (≈ 30.9 µM)
[22]
  MIC: > 256 µg/mL
[39]
  MIC: 128 µg/mL
[25]
  MIC: 16 µg/mL (≈ 30.9 µM)
[26]
  MIC: 8 µg/mL (≈ 15.5 µM)
[40]
  MIC: 1 µg/mL

Source: ChEMBL document CHEMBL1649315, “Extended-spectrum cephalosporinase in Acinetobacter baumannii” (Antimicrob Agents Chemother, 2010)
